Legend:
Type in all cases: cell-based, human
T3M4 cells = assay: Growth factor-induced proliferation (MTT), T3M4; conditions: for Maximal effect of growth factor on cell growth: T3M4, growth factor alone (absence of Compound I), 72 hours, MTT
Experimental: (§1) Cell culture and MTT assay: Human pancreatic cancer cell lines are routinely grown in DMEM (Colo-357 and Mia-PaCa-2) or RPMI (Aspc-1, BxPc-3, Capan-1, and T3M4) supplemented with 10% FBS, 100 U/ml penicillin, and 100 μg/ml streptomycin (complete medium). To assess cell proliferation, the MTT test is employed. […] After 48 or 72 hours of incubation, 3-(4,5-methylthiazol-2-yl)-2,5-diphenyl-tetrazolium bromide (MTT) is added (50 μg/well) for 4 hours. Formazan products are solubilized with acidic isopropanol, and the optical density is measured at 570 nm. […] All experiments are performed in triplicate.
(§2) EGF-induced proliferation of both Mia-PaCa-2 and T3M4 cell lines in a dose-dependent manner is seen with maximal effects of +72% ±7.5% (Mia-PaCa-2) and +52% ±23% (T3M4). […] FGF-2 markedly stimulates cell growth in Mia-PaCa-2 cell lines with maximal effects of +79% ±6%, and only slightly stimulated T3M4 cell lines, with maximal effects of +7% ±4%. […] Both cell lines are less sensitive to IGF-1 stimulation compared with EGF and FGF-2, with maximal effects of +24% ±2% in Mia-PaCa-2 and +17% ±4% in. T3M4.

Mia-PaCa-2 cells = assay: Growth factor-induced proliferation (MTT), Mia-PaCa-2; conditions: for Maximal effect of growth factor on cell growth: Mia-PaCa-2, growth factor alone (absence of Compound I), 72 hours, MTT
Experimental: as §1, §2

MAPK = assay: Western blot of MAPK phosphorylation in growth factor-conditioned cells; conditions: Mia-PaCa-2 and T3M4 cells, data not shown
Experimental: Western blot analysis: Cell culture monolayers are washed twice with ice-cold PBS and lysed with buffer containing Tris-HCl (50 mM, pH 7.4), NP-40 (1%), Na-deoxycholate (0.25%), NaCl (150 mM), EDTA (1 mM), PMSF (1 mM), Na3VO4 (1 mM), NaF (1 mM) and one tablet of complete mini-EDTA-free protease inhibitor cocktail (in 10 ml buffer). Protein concentration is determined by the BCA protein assay (Pierce Chemical Co., Rockford, Ill., USA). 30 μg of cell lysates are separated on SDS-polyacrylamide gels and electroblotted onto nitrocellulose membranes. Membranes are then incubated in blocking solution (5% nonfat-milk in 20 mM Tris-HCl, 150 mM NaCl, 0.1% Tween-20) (TBS-T), followed by incubation with the indicated antibodies at 4° C. overnight. The membranes are then washed in TBS-T and incubated with HRPO-conjugated secondary antibodies for 1 hour at room temperature. Antibody detection is performed with an enhanced chemiluminescence reaction. Statistical analysis: Results are expressed as mean±SEM. For statistical analysis, the Student's t-test is used. Significance is defined as p<0.05.

[1] = system: BxPc-3, Colo-357 and Capan-1; assay: PDGF effect on cell growth, three additional cell lines; conditions: BxPc-3, Colo-357 and Capan-1, growth factor alone
Experimental: as §1, §2

Substance	Maximal effect of growth factor on cell growth (T3M4 cells)	Maximal effect of growth factor on cell growth (Mia-PaCa-2 cells)	Induction of cell proliferation by growth factor (T3M4 cells; T3M4, growth factor alone)	Induction of cell proliferation by growth factor (Mia-PaCa-2 cells; Mia-PaCa-2, growth factor alone)	Induction of PDGF and MAPK kinase phosphorylation (MAPK)	Effect of growth factor on cell growth [1]
EGF: epidermal growth factor, EGF from Upstate Biotechnology	+52% ±23	+72% ±7.5	–	–	–	–
FGF-2: human recombinant FGF-2 from R&D Systems	+7% ±4	+79% ±6	–	–	–	–
IGF-1: human recombinant IGF-1 from R&D Systems	+17% ±4	+24% ±2	–	–	–	–
PDGF	–	–	does not induce cell proliferation	does not induce cell proliferation	does not induce PDGF and MAPK kinase phosphorylation	no effect on cell growth

— patent US20060167006A1, “Method of treatment” (priority 2003, published 2006)
